In general, IC50 refers to the concentration that gives 50% inhibition.

The assay has as its target human NaV 1.8 channels stably expressed in HEK 293 cells (Homo sapiens (Human), UniProt Q9Y5Y9). As to the kind of experiment: Nav1.8 Qube automated patch-clamp assay. Type of assay: cell-based. The settings on record: human NaV1.8 in HEK 293 cells, whole-cell voltage clamp, room temperature; read-out: IC50 values (nM) for Examples in the Nav1.8 Qube Assay. The procedure, abridged: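 Whole-cell voltage clamp at room temperature on HEK293 cells; from −90 mV, a 10 s 1 Hz train of 20 ms pulses to 10 mV (repolarising to −67 mV) was applied. Peak currents at pulses 1 and 10 gave resting- and inactivated-state inhibition; IC50 fitted by Hill equation. Internal CsF/CsCl buffer.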
Background: The patch-clamp technique gives a direct electrical read-out from membranes.

Sequence of human NaV 1.8 channels stably expressed in HEK 293 cells (Q9Y5Y9 whole entry): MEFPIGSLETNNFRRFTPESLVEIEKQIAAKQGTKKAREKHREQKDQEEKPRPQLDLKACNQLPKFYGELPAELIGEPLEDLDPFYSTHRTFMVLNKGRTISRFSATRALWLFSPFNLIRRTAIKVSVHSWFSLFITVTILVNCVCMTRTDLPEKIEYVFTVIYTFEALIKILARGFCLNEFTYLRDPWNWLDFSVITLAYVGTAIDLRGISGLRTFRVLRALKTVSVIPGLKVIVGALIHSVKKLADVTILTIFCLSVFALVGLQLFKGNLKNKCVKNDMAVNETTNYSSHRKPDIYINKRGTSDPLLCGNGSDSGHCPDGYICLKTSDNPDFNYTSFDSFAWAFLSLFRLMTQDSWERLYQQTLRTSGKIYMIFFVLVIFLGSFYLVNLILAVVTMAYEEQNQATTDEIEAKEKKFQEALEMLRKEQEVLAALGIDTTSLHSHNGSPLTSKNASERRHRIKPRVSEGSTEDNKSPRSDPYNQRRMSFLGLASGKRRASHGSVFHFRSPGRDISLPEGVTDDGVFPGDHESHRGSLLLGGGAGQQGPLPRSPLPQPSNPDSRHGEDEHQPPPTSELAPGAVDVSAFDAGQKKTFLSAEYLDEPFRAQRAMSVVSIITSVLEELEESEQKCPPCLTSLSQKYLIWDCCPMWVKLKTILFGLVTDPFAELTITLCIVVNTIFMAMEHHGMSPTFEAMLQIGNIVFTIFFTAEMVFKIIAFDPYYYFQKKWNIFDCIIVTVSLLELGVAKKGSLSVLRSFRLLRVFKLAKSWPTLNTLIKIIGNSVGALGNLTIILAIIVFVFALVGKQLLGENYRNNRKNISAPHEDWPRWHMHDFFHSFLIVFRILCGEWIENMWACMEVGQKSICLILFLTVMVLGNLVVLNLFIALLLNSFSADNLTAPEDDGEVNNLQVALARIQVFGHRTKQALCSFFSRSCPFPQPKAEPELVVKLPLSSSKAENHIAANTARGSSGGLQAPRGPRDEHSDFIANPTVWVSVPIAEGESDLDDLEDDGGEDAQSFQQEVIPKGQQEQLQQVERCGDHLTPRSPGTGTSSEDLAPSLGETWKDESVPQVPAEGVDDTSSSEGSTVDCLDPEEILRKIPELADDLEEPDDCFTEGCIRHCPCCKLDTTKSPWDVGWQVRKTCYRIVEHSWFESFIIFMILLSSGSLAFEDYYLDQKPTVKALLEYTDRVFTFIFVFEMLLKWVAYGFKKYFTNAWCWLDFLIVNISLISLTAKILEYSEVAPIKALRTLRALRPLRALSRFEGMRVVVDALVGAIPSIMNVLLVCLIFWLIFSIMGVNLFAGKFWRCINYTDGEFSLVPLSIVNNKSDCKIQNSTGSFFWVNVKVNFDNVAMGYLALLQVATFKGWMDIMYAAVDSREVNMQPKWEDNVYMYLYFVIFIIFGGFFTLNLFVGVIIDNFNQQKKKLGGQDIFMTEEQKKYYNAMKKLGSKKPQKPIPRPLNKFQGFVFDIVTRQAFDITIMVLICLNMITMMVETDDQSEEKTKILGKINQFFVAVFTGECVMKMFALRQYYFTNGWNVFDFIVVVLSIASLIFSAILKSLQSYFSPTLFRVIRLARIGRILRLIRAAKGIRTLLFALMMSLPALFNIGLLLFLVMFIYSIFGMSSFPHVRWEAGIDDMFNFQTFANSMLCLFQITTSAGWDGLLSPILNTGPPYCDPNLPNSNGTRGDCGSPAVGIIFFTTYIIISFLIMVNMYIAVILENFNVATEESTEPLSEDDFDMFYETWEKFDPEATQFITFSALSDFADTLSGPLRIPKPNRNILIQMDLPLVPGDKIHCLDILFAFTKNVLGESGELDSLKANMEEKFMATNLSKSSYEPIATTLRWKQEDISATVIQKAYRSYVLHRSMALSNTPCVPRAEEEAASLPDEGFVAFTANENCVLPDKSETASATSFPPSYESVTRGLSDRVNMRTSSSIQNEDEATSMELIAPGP

With `C[C@@H]1C(=O)NCCN1C(=O)NC(c1ccc(OC(F)(F)F)cc1)c1cc(C(F)(F)F)n[nH]1` (single isomer, unassigned) [Example 87A, (2R)-2-methyl-3-oxo-N-((R or S)-(4-(trifluoromethoxy)phenyl)(3-(trifluoromethyl)-1H-pyrazol-5-yl)methyl)piperazine-1-carboxamide], the half-inhibitory concentration (IC50) was found to be 124 nM.

Consider `C[C@@H]1C(=O)NCCN1C(=O)NC(c1cnc(C(F)(F)F)c(Cl)c1)c1ccc(F)c(C(F)(F)F)n1` (single isomer, unassigned) [Example 82A], for which the 50% inhibitory concentration (IC50) was determined as 17.4 nM.

As to `C[C@@H]1C(=O)NCCN1C(=O)NC(c1ccc(OC2CC2)c(F)c1)c1ccc(F)c(C(F)(F)F)n1` (single isomer, unassigned) [Example 59B, (2R)-N-((S or R)-(4-cyclopropoxy-3-fluorophenyl)(5-fluoro-6-(trifluoromethyl)pyridin-2-yl)methyl)-2-methyl-3-oxopiperazine-1-carboxamide], the IC50 amounted to 31.8 nM.

As for `C[C@@H]1C(=O)NCCN1C(=O)NC(c1ccc(OC(F)F)nc1)c1ccc(F)c(Cl)c1F` (single isomer, unassigned) [Example 31B, (2R)-N-((S or R)-(3-chloro-2,4-difluoro-phenyl)(6-(difluoro-methoxy)pyridin-3-yl)methyl)-2-methyl-3-oxopiperazine-1-carboxamide], the IC50 was 16.1 nM.

Consider `C[C@H]1C(=O)NCCN1C(=O)NC(c1ccc(F)c(Cl)c1)c1cccc(C(F)(F)F)n1` (single isomer, unassigned) [Example 45, (2S)-N-((R or S)-(3-chloro-4-fluoro-phenyl)(6-(trifluoro-methyl)pyridin-2-yl)methyl)-2-methyl-3-oxopiperazine-1-carboxamide], for which the IC50 amounted to 1700 nM.

For `C[C@@H]1C(=O)NCCN1C(=O)NC(c1ccc(F)c(Cl)c1)c1cc(C(F)(F)F)n[nH]1` (single isomer, unassigned) [Example 85A], the half-inhibitory concentration (IC50) was 57.8 nM.

Regarding `C[C@@H]1C(=O)NCCN1C(=O)NC(c1ccc(OC(F)(F)F)c(F)c1)c1ccc(C#N)c(C(F)(F)F)n1` (single isomer, unassigned) [Example 61A], the half-inhibitory concentration (IC50) stood at 1.02 nM.

Turning to `C[C@@H]1C(=O)NCCN1C(=O)NC(c1ccc(F)c(Cl)c1)c1cc(C(F)(F)F)nn1C` (single isomer, unassigned) [Example 86B, (2R)-N-((S or R)-(3-chloro-4-fluoro-phenyl)(1-methyl-3-(trifluoro-methyl)-1H-pyrazol-5-yl)methyl)-2-methyl-3-oxo-piperazine-1-carboxamide], the IC50 turned out to be 154 nM.

On to `C[C@@H]1C(=O)NCCN1C(=O)NC(c1ccc(F)c(Cl)c1)c1ccc(Cl)c(C(F)(F)F)n1` (single isomer, unassigned) [Example 79, (2R)-N-((R or S)-(3-chloro-4-fluoro-phenyl)(5-chloro-6-(trifluoromethyl)pyridin-2-yl)methyl)-2-methyl-3-oxopiperazine-1-carboxamide], for which the IC50 stood at 0.58 nM.

Turning to `C[C@@H]1C(=O)NCCN1C(=O)NC(c1ccc(C(C)(F)F)nc1)c1ccc(F)c(Cl)c1F` (single isomer, unassigned) [Example 75A], the half-inhibitory concentration (IC50) turned out to be 89.5 nM.

For the compound `C[C@@H]1C(=O)NCCN1C(=O)NC(c1ccc(OC(F)(F)F)nc1)c1ccc(F)c(C(F)(F)F)n1` (single isomer, unassigned) [Example 51B, (2R)-N-((S or R)-(5-fluoro-6-(trifluoro-methyl)pyridin-2-yl)(6-(trifluoromethoxy)pyridin-3-yl)methyl)-2-methyl-3-oxopiperazine-1-carboxamide], the IC50 turned out to be 13.2 nM.

`C[C@@H]1C(=O)NCCN1C(=O)NC(c1ccc(C(F)(F)F)nc1)c1ccc(Cl)c(C(F)(F)F)n1` (single isomer, unassigned) [Example 81A, (2R)-N-((R or S)-(5-chloro-6-(trifluoromethyl)pyridin-2-yl)(6-(trifluoro-methyl)pyridin-3-yl)methyl)-2-methyl-3-oxopiperazine-1-carboxamide]: the IC50 was found to be 8 nM.

These data come from patent publication US20240246932A1 (Merck Sharp & Dohme LLC, priority 2021, published 2024).
